# In ChEMBL document CHEMBL5335841, “In vitro biological evaluation and in silico studies of linear diarylheptanoids from Curcuma aromatica Salisb. as urease inhibitors” (RSC Med Chem, 2024):
# Assays:
# [1] = Inhibition of urease (unknown origin) using urea as substrate preincubated for 30 mins followed by substrate addition and measured after 20 mins by red phenol reagent based assay
# [2] = Inhibition of urease (unknown origin) at 250 uM using urea as substrate preincubated for 30 mins followed by substrate addition and measured after 20 mins by red phenol reagent based assay relative to control; settings: time 50.0 min
smiles,measurement,setting,value
Oc1ccc(CC[C@H](O)C[C@H](O)CCc2ccc(O)c(O)c2)cc1 (relative stereo),IC50,[1],9.6 µM
COc1cc(CC[C@@H](O)C[C@@H](O)CCc2ccc(O)cc2)ccc1O (relative stereo),IC50,[1],153 µM
COc1cc(CC[C@@H](O)C[C@@H](O)CCc2ccc(O)cc2)cc(OC)c1O (relative stereo),IC50,[1],228 µM
COc1cc(CC[C@H](O)C[C@H](O)CCc2cc(OC)c(O)c(OC)c2)ccc1O (relative stereo),inhibition,[2],27.3%
same,IC50,[1],> 250 µM
COc1cc(CC[C@@H](O)C[C@H](O)CCc2ccc(O)c(O)c2)ccc1O (relative stereo),IC50,[1],21.8 µM
COc1cc(CC[C@H](C[C@H](CCc2ccc(O)cc2)OC(C)=O)OC(C)=O)ccc1O (relative stereo),IC50,[1],223 µM
CC(=O)O[C@H](CCc1ccc(O)c(O)c1)C[C@H](CCc1ccc(O)cc1)OC(C)=O (relative stereo),IC50,[1],129 µM
COc1cc(CC[C@@H](O)C[C@H](O)CCc2cc(OC)c(O)c(OC)c2)ccc1O (relative stereo),inhibition,[2],14.3%
same,IC50,[1],> 250 µM
COc1cc(CC[C@H](C[C@H](CCc2ccc(O)cc2)OC(C)=O)OC(C)=O)cc(OC)c1O (relative stereo),inhibition,[2],3.3%
same,IC50,[1],> 250 µM
NC(=O)NO [HYDROXYUREA],IC50,[1],77.5 µM
